Test results: ChEMBL document CHEMBL4418316, “Oxazole derivatives for use in the treatment of cancer” (2018)

Assays:
[1] = Antiproliferative activity against mouse LM2 cells after 72 hrs by Celltiter-glo luminescence assay; type: functional, cell-based
[2] = Ratio of EC50 for CRISPR PAICS knock out mouse LM2 cells to EC50 for mouse wild type LM2 cells; type: functional
[3] = tested on: MDA-MB-231; experiment: Antiproliferative activity against human MDA-MB-231 cells after 72 hrs by Celltiter-glo luminescence assay; type: functional, cell-based; details: MDA-MB-231, 72 h

SMILES | EC50 [1] [nM] | Ratio EC50 [2] | EC50 [3] [nM]
CN(C)CCCn1cc(-c2ccc(Cl)c(NC(=O)c3coc(N)n3)c2)cn1 | 100 to 250 | – | –
CN1CCC(n2cc(-c3ccc(Cl)c(NC(=O)c4coc(N)n4)c3)cn2)CC1 | 100 to 250 | – | –
Cc1nn(C2CCNCC2)cc1-c1ccc(Cl)c(NC(=O)c2coc(N)n2)c1 | 100 to 250 | – | –
CN1CC(n2cc(-c3ccc(Cl)c(NC(=O)c4coc(N)n4)c3)cn2)C1 | 100 to 250 | – | –
Nc1nc(C(=O)Nc2cc(-c3ccc(N4CCNCC4)cc3)ccc2Cl)co1 | 250 to 500 | – | –
CN(C)C1CCN(Cc2csc(-c3ccc(Cl)c(NC(=O)c4coc(N)n4)c3)n2)CC1 | 100 to 250 | – | –
Nc1nc(C(=O)Nc2cc(-c3cnn(CCCN4CCNCC4)c3)ccc2Cl)co1 | 100 to 250 | – | –
CN(C)CCCOc1ccc(-c2ccc(Cl)c(NC(=O)c3coc(N)n3)c2)cn1 | 100 to 250 | – | –
CNC1CCC(n2cc(-c3ccc(Cl)c(NC(=O)c4coc(N)n4)c3)cn2)CC1 (mixture of isomers) | < 100 | – | –
CCNCCCn1cc(-c2ccc(Cl)c(NC(=O)c3coc(N)n3)c2)cn1 | < 100 | >80 | –
CN(C)CC(=O)N1CCC(n2cc(-c3ccc(Cl)c(NC(=O)c4coc(N)n4)c3)cn2)CC1 | 100 to 250 | – | –
Nc1nc(C(=O)Nc2cc(-c3ccc(CN4CCNCC4)nc3)ccc2Cl)co1 | 250 to 500 | – | –
CN(C)C1CCN(C(=O)Cn2cc(-c3ccc(Cl)c(NC(=O)c4coc(N)n4)c3)cn2)CC1 | 250 to 500 | – | –
CN1CCN(c2ncc(-c3ccc(Cl)c(NC(=O)c4coc(N)n4)c3)s2)CC1 | 100 to 250 | – | –
CNCCn1cc(-c2ccc(Cl)c(NC(=O)c3coc(N)n3)c2)cn1 | 100 to 250 | – | –
CN(C)CCCC(=O)N1CCC(n2cc(-c3ccc(Cl)c(NC(=O)c4coc(N)n4)c3)cn2)CC1 | 250 to 500 | – | –
CN(C)CCOc1ccc(-c2ccc(Cl)c(NC(=O)c3coc(N)n3)c2)cn1 | 250 to 500 | – | –
Nc1nc(C(=O)Nc2cc(-c3nc(CN4CCNCC4)cs3)ccc2Cl)co1 | < 100 | – | –
Nc1nc(C(=O)Nc2cc(-c3cnn(CCCNC4CC4)c3)ccc2Cl)co1 | 100 to 250 | – | –
CCNCCn1cc(-c2ccc(Cl)c(NC(=O)c3coc(N)n3)c2)cn1 | 100 to 250 | – | –
CN(C)CCCOc1ncc(-c2ccc(Cl)c(NC(=O)c3coc(N)n3)c2)s1 | < 100 | >30 | –

SMILES | EC50 [1] [nM] | Ratio EC50 [2] | EC50 [3] [nM]
Nc1nc(C(=O)Nc2cc(-c3ccn(C4CCNCC4)n3)ccc2Cl)co1 | 250 to 500 | – | –
Nc1nc(C(=O)Nc2cc(-c3cnn(C4CCNC4)c3)ccc2Cl)co1 (configuration not stated) | 100 to 250 | – | –
Nc1nc(C(=O)Nc2cc(-c3ccc(CN4CCNCC4)cc3)ccc2Cl)co1 | 250 to 500 | – | –
CSc1ccc(-c2nc(CN3CCNCC3)cs2)cc1NC(=O)c1coc(N)n1 | < 100 | – | –
Nc1nc(C(=O)Nc2cc(-c3cnn(C4CCN(CCO)CC4)c3)ccc2Cl)co1 | 100 to 250 | – | –
CSc1ccc(-c2ccc(OCCCN(C)C)nc2)cc1NC(=O)c1coc(N)n1 | 250 to 500 | – | –
CNCCCOc1ccc(-c2ccc(Cl)c(NC(=O)c3coc(N)n3)c2)cn1 | 100 to 250 | – | –
CN(C)CCC(=O)N1CC(Cn2cc(-c3ccc(Cl)c(NC(=O)c4coc(N)n4)c3)cn2)C1 | 250 to 500 | – | –
CN1CCN(c2ccc(-c3ccc(Cl)c(NC(=O)c4coc(N)n4)c3)cn2)CC1 | 100 to 250 | >10 | –
CN1CCC(NC(=O)Cn2cc(-c3ccc(Cl)c(NC(=O)c4coc(N)n4)c3)cn2)CC1 | 250 to 500 | – | –
CNCC1CCN(Cc2ncc(-c3ccc(Cl)c(NC(=O)c4coc(N)n4)c3)s2)CC1 | < 100 | – | –
CNCCCn1cc(-c2ccc(Cl)c(NC(=O)c3coc(N)n3)c2)cn1 | < 100 | – | –
Nc1nc(C(=O)Nc2cc(-c3ccc(OC4CCNC4)nc3)ccc2Cl)co1 (configuration not stated) | 250 to 500 | – | –
CNC1CCN(Cc2ncc(-c3ccc(Cl)c(NC(=O)c4coc(N)n4)c3)s2)CC1 | < 100 | – | –
Nc1nc(C(=O)Nc2cc(-c3cnn(C4CCNCC4)c3)ccc2Cl)co1 | 250 to 500 | – | –
CN1CCN(Cc2ccc(-c3ccc(Cl)c(NC(=O)c4coc(N)n4)c3)cn2)CC1 | 250 to 500 | – | –
Nc1nc(C(=O)Nc2cc(-c3ccc(CN[C@H]4CC[C@H](N)CC4)nc3)ccc2Cl)co1 | 250 to 500 | – | –
Nc1nc(C(=O)Nc2cc(-c3cnn(C4CCCNC4)c3)ccc2Cl)co1 (configuration not stated) | 100 to 250 | – | –
CN(C)CCC(=O)N1CCC(n2cc(-c3ccc(Cl)c(NC(=O)c4coc(N)n4)c3)cn2)CC1 | 250 to 500 | – | –
CN(C)CCCc1ncc(-c2ccc(Cl)c(NC(=O)c3coc(N)n3)c2)s1 | < 100 | – | –
Nc1nc(C(=O)Nc2cc(-c3ccc(OC4CCNCC4)nc3)ccc2Cl)co1 | 250 to 500 | – | –

SMILES | EC50 [1] [nM] | Ratio EC50 [2] | EC50 [3] [nM]
CC(C)NCCCOc1ccc(-c2ccc(Cl)c(NC(=O)c3coc(N)n3)c2)cn1 | 100 to 250 | – | –
CNC1CCCN(Cc2csc(-c3ccc(Cl)c(NC(=O)c4coc(N)n4)c3)n2)C1 (configuration not stated) | < 100 | – | –
Nc1nc(C(=O)Nc2cc(-c3cnc(CN4CCNCC4)s3)ccc2Cl)co1 | 100 to 250 | – | –
CC1CN(C(=O)Cn2cc(-c3ccc(Cl)c(NC(=O)c4coc(N)n4)c3)cn2)CCN1 (configuration not stated) | 250 to 500 | – | –
CN(C)CCCOc1nc(-c2ccc(Cl)c(NC(=O)c3coc(N)n3)c2)cs1 | 250 to 500 | – | 250 to 500
CN(C)CCOc1ccc(-c2ccc(Cl)c(NC(=O)c3coc(N)n3)c2)cc1 | 100 to 250 | – | –
CSc1ccc(-c2cnc(OCCCN(C)C)s2)cc1NC(=O)c1coc(N)n1 | 100 to 250 | – | –
Nc1nc(C(=O)Nc2cc(-c3cnc(OC4CCNCC4)s3)ccc2Cl)co1 | < 100 | – | –
Nc1nc(C(=O)Nc2cc(-c3ccc(OCC4CCCNC4)nc3)ccc2Cl)co1 (configuration not stated) | 250 to 500 | – | –
CNC1CCCN(Cc2ncc(-c3ccc(Cl)c(NC(=O)c4coc(N)n4)c3)s2)C1 (configuration not stated) | 100 to 250 | – | –
CN(C)CCNC(=O)Cn1cc(-c2ccc(Cl)c(NC(=O)c3coc(N)n3)c2)cn1 | 250 to 500 | – | –
CCN(CC)CCCOc1ncc(-c2ccc(Cl)c(NC(=O)c3coc(N)n3)c2)s1 | < 100 | – | –
CN1CCC(NCc2ccc(-c3ccc(Cl)c(NC(=O)c4coc(N)n4)c3)cn2)CC1 | 100 to 250 | – | –
CN1CCN(CCCn2cc(-c3ccc(Cl)c(NC(=O)c4coc(N)n4)c3)cn2)CC1 | 100 to 250 | – | –
N#Cc1nn(C2CCNCC2)cc1-c1ccc(Cl)c(NC(=O)c2coc(N)n2)c1 | 100 to 250 | – | –
Nc1nc(C(=O)Nc2cc(-c3cnn(CCN4CCNCC4)c3)ccc2Cl)co1 | 250 to 500 | – | –
CN(C)CCOc1ncc(-c2ccc(Cl)c(NC(=O)c3coc(N)n3)c2)cn1 | 250 to 500 | – | –
Nc1nc(C(=O)Nc2cc(-c3cnc(OC4CCNCC4)nc3)ccc2Cl)co1 | 250 to 500 | – | –
CN1CCN(CCn2cc(-c3ccc(Cl)c(NC(=O)c4coc(N)n4)c3)cn2)CC1 | 250 to 500 | – | –
Nc1nc(C(=O)Nc2cc(-c3ccc(CN4CC5CNCC5C4)nc3)ccc2Cl)co1 (configuration not stated) | 250 to 500 | – | –
CN(C)CCCOc1ccc(-c2ccc(Cl)c(NC(=O)c3coc(N)n3)c2)nc1 | 250 to 500 | – | –
